In PubChem BioAssay (NCI) one finds TGI data, which are given here for 13 compounds.

Some test systems named below: UO-31 renal; MDA-MB-435; MALME-3M melanoma; COLO 205 colon; HL-60(TB) leukemia; SF-539 CNS; K-562 leukemia; LOX IMVI melanoma; HS 578T breast; NCI-H226 lung.
What all share (test): inhibition of tumour cell growth, NCI panel, 48 h

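Where inhibition never reached the appropriate level, the endpoint shown equals the highest concentration tested. Otherwise, values were interpolated linearly from a five-concentration, 48-hour dose response in 96-well plates. TGI is the concentration that stops growth completely.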

For the compound `Cc1ccc(S(=O)(=Nc2ccccc2)C(C(C)C)C(C)(C)Cl)cc1` (stereo not given), the TGI was above 50 µM with UO-31 renal; 38.6 µM in the assay on MDA-MB-435; above 50 µM in the assay with MALME-3M melanoma; 7.56 µM with COLO 205 colon; 22 µM in the assay with HL-60(TB) leukemia; above 50 µM in the assay on SF-539 CNS. The TGI in the assay with K-562 leukemia was above 50 µM; in the assay on LOX IMVI melanoma, above 50 µM; with HS 578T breast it was above 50 µM; with NCI-H226 lung, 45.9 µM.
`Cc1ccccc1NC(=S)N=Nc1c(O)[nH]c2ccccc12`: the TGI in the assay with UO-31 renal, in the assay with MDA-MB-435, in the assay with MALME-3M melanoma, with COLO 205 colon, with HL-60(TB) leukemia and in the assay on SF-539 CNS was above 100 µM throughout. Besides, the TGI in the assay with K-562 leukemia, in the assay with LOX IMVI melanoma, in the assay on HS 578T breast and in the assay on NCI-H226 lung was above 100 µM each time.
For `O=[N+]([O-])c1cccc2nc3ccccc3c(NCCC[N+]3([O-])CCCCC3)c12`, the TGI with UO-31 renal was above 58.6 µM; in the assay with MDA-MB-435, 0.44 µM; in the assay with MALME-3M melanoma it was 0.352 µM; in the assay with COLO 205 colon it was 0.317 µM; with HL-60(TB) leukemia, 8.44 µM; with SF-539 CNS, 2.16 µM. The TGI in the assay with K-562 leukemia was above 100 µM; in the assay with LOX IMVI melanoma it was 2.4 µM; in the assay on HS 578T breast, 4.02 µM; in the assay on NCI-H226 lung it was 1.54 µM.
For `CC[C@@]1(O)C(=O)OCc2c1cc1n(c2=O)Cc2c-1nc1ccccc1c2/C=N\NC(=O)C(N)CS` (stereo not given in full), the TGI is 14.7 µM in the assay on UO-31 renal; above 100 µM in the assay with MDA-MB-435; above 100 µM in the assay on MALME-3M melanoma; above 100 µM in the assay with COLO 205 colon; above 100 µM with HL-60(TB) leukemia; 0.806 µM with SF-539 CNS. In addition, the TGI with K-562 leukemia was above 100 µM; with LOX IMVI melanoma it was 13.4 µM; in the assay with HS 578T breast it was above 100 µM; in the assay with NCI-H226 lung it was 34.1 µM.
On to `C=C1C(=O)[C@]23[C@H](O)[C@H]1CC[C@H]2[C@@]12CO[C@@]3(O)C[C@@H]1C(C)(C)CC[C@@H]2O`, for which the TGI is above 25 µM in the assay with UO-31 renal; 7.61 µM in the assay with MDA-MB-435; 23.4 µM in the assay with MALME-3M melanoma; 7.52 µM in the assay with COLO 205 colon; above 25 µM in the assay on HL-60(TB) leukemia; 16.7 µM in the assay on SF-539 CNS. The TGI was above 25 µM in the assay with K-562 leukemia, 13.9 µM in the assay with LOX IMVI melanoma, 22.2 µM in the assay with HS 578T breast and above 25 µM in the assay on NCI-H226 lung.
`COc1cc2c3c(cc(Cl)nc3c1OC)C(O)(CC(C)=O)C(=O)N2` (stereo not given): the TGI in the assay on UO-31 renal is above 55.6 µM; in the assay on MDA-MB-435 it was 30.9 µM; in the assay with MALME-3M melanoma it was 29.8 µM; with COLO 205 colon, above 100 µM; in the assay on HL-60(TB) leukemia, 24.1 µM; in the assay on SF-539 CNS, above 100 µM. In addition, the TGI with K-562 leukemia was above 95 µM; in the assay on LOX IMVI melanoma, 34.8 µM; in the assay on HS 578T breast, above 100 µM; in the assay with NCI-H226 lung, above 57.3 µM.
For `N=C1N=C(N)c2cc3c(cc21)SCCSCCCSCCS3`, the TGI with UO-31 renal is above 100 µM; with MDA-MB-435, 15.9 µM; with MALME-3M melanoma, 44.4 µM; with COLO 205 colon it was 16.9 µM; in the assay with HL-60(TB) leukemia it was 20.6 µM; in the assay with SF-539 CNS, above 54.6 µM. The TGI is 31.8 µM in the assay with K-562 leukemia, 17.6 µM in the assay with LOX IMVI melanoma, 44.2 µM with HS 578T breast and above 73.2 µM with NCI-H226 lung.
In the case of `COC(=O)C[C@H](COCc1ccccc1)NC(=O)C[C@H](COCc1ccccc1)NC(=O)C[C@H](COCc1ccccc1)NC(=O)OC(C)(C)C`, the TGI with UO-31 renal, in the assay on MDA-MB-435, in the assay with MALME-3M melanoma, with COLO 205 colon, with HL-60(TB) leukemia and in the assay on SF-539 CNS was above 100 µM each time. The TGI with K-562 leukemia, in the assay on LOX IMVI melanoma, with HS 578T breast and with NCI-H226 lung was above 100 µM each time.
In the case of `Cc1ccnc(NC(=S)Nc2ccccc2Cl)c1`, the TGI in the assay with UO-31 renal, in the assay with MDA-MB-435, with MALME-3M melanoma, in the assay with COLO 205 colon, in the assay on HL-60(TB) leukemia and with SF-539 CNS was above 100 µM in each case. Besides, the TGI with K-562 leukemia, in the assay with LOX IMVI melanoma, in the assay with HS 578T breast and with NCI-H226 lung was above 100 µM each time.
As to `CCN(CC)C(=S)SNCCc1ccc(S(N)(=O)=O)cc1`, the TGI in the assay with UO-31 renal was 27 µM; in the assay on MDA-MB-435, 29.6 µM; in the assay with MALME-3M melanoma, 24.3 µM; in the assay with COLO 205 colon, above 100 µM; in the assay with HL-60(TB) leukemia, above 67.2 µM; in the assay with SF-539 CNS, 28.8 µM. Further, the TGI in the assay on K-562 leukemia was above 100 µM; with LOX IMVI melanoma it was 33 µM; in the assay with HS 578T breast, 53.1 µM; in the assay on NCI-H226 lung it was above 84.7 µM.
As to `O=C1C=CC2(O[C@@H](Cc3ccccc3)[C@H](Cc3ccccc3)O2)C(SC(=O)c2ccccc2)C1` (stereo not given in full), the TGI in the assay on UO-31 renal was 1.87 µM; with MDA-MB-435 it was 5.46 µM; with MALME-3M melanoma, 5.06 µM; in the assay on COLO 205 colon it was 3.14 µM; with HL-60(TB) leukemia, 4.82 µM; with SF-539 CNS, 3.04 µM. Moreover, the TGI stood at 89.4 µM with K-562 leukemia, 1.46 µM in the assay with LOX IMVI melanoma, 4.57 µM with HS 578T breast and 3.2 µM in the assay with NCI-H226 lung.
Consider `O=C1c2ccccc2C(=O)N1C(=S)c1ccccc1`, for which the TGI in the assay with UO-31 renal, with MDA-MB-435, in the assay on MALME-3M melanoma, in the assay with COLO 205 colon, in the assay on HL-60(TB) leukemia and in the assay on SF-539 CNS was above 100 µM in each case. For the same compound, the TGI in the assay with K-562 leukemia, in the assay with LOX IMVI melanoma, in the assay on HS 578T breast and in the assay on NCI-H226 lung was above 100 µM throughout.
In the case of `N=C(N)n1[nH]c2c(c1=O)CCC2`, the TGI with UO-31 renal, in the assay on MDA-MB-435, with MALME-3M melanoma, with COLO 205 colon, with HL-60(TB) leukemia and in the assay with SF-539 CNS was above 100 µM each time. The TGI in the assay on K-562 leukemia, with LOX IMVI melanoma, with HS 578T breast and in the assay with NCI-H226 lung was above 100 µM in each case.
